Results published in the METLIN SMRT retention time set (Domingo-Almenara et al. 2019).

Experiment: gradient 5% acetonitrile 3 min, to 50% in 2 min, to 85% in 15 min, held 3 min, 100 µL/min
Conditions: column: Zorbax Extend-C18 2.1 x 50 mm; eluents: water / acetonitrile, 0.1% formic acid
How it was run: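 Pure standards were run in mixtures of ~100 molecules by HPLC coupled to a quadrupole time-of-flight mass spectrometer. The column was a Zorbax Extend-C18 (2.1 × 50 mm, 1.8 μm) at 100 μL/min, with water and acetonitrile each containing 0.1% formic acid, in positive and negative ionization mode. Dead and dwell volumes were 40 μL and 900 μL. Retention time was taken from computationally picked adduct peaks, each manually inspected, with data collected over 3 months.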

SMILES	RP-LC retention time [s]
Cc1cccc(NC(=O)Cn2c(=O)nc(N3CCC(C)CC3)c3ccccc32)c1C	909
Cc1ccc(-c2nnc(Cc3nc(-c4cccc(C(F)(F)F)c4)no3)o2)cc1	1160
COC(=O)c1ccccc1NC(=O)C12CCC(C1)C(C)(C)C2=O (stereo not drawn)	951
COC(=O)c1cc(S(=O)(=O)N2CCCC2C(=O)Nc2ccc3c(c2)OCCO3)cn1C (stereo not drawn)	794
CCOc1ccccc1-c1nc(CN(c2ccccc2OC)S(=O)(=O)c2ccccc2C)c(C)o1	1250
COc1ccccc1CNC(=O)C1=C2CCCN2c2ccccc2S1(=O)=O	843
COc1ccc(Cl)cc1S(=O)(=O)NCC1CCN(c2ncccn2)CC1	772
O=c1n(Cc2cccc(C(F)(F)F)c2)nc2c(S(=O)(=O)N3CCCCC3)cccn12	993
CCOC(=O)c1ccccc1NC(=O)N(CC)Cc1cc(=O)[nH]c2ccccc12	907
COc1ccc(C2C(C(=O)C3CC3)=C(O)C(=O)N2CCCOC(C)C)cc1OC (stereo not drawn)	736
CCc1ccc(CNC(=O)Cc2nnc(-c3ccccn3)o2)cc1	743
COc1ccc(N2CCN(c3nccc4ccc(C(=O)NC5CCCCCC5)cc34)CC2)cc1	835
CCn1cc(S(=O)(=O)Nc2cccc(C#N)c2)c2cccnc21	781
Cc1nc2nc(-c3ccc(C(C)(C)C)cc3)nn2c(C)c1CC(=O)N1CCc2ccccc2C1	1120
CCN(CC)CCNC(=O)Cn1c(-c2ccccn2)nc2ccccc21	571
COc1ccc(N2CCN(C(=O)C3(c4ccc(NC(=O)C5CC5)cc4)CCC3)CC2)cc1	816
CCOc1ccccc1N1CCN(c2cc(C(=O)O)c3cc(NC(=O)C(C)C)ccc3n2)CC1	684
Cc1cc(C)n(CCN2CCN(C(=O)C3CCC3)CC2)n1	546
COc1ccc(-n2c(=O)n(C)c(=O)c3cc(C(=O)Nc4cc(F)cc(F)c4)cnc32)cc1	970
COc1cccc(NC(=O)N2CCC(n3c(C(F)(F)F)nc4cccnc43)CC2)c1	861
CCc1ccc(NC(=O)c2cn3c(n2)CCCC3)cc1	644
Cn1nc(C2CCCN2C(=O)C2(c3ccccc3)CC2)n(Cc2ccccc2)c1=O (stereo not drawn)	830

SMILES	RP-LC retention time [s]
COc1cc(C(C)c2cc3c(cc2OCCO)OCO3)cc(OC)c1OC (stereo not drawn)	798
Cc1ccc(S(=O)(=O)N2CCC(n3cnnc3-c3ccccc3)CC2)cc1C	859
CCc1noc(NC(C)=O)c1-c1ccc(C)c(S(=O)(=O)N2CCc3ccccc3C2)c1	956
COc1cc2ncc(C(=O)c3ccc(C)c(C)c3)c(N3CCN(C)CC3)c2cc1OC	570
O=C(CCn1cnc2cc(-c3noc(-c4cccc5[nH]ccc45)n3)ccc21)N1CCCC1	701
COc1cc(-c2ccc(SCC(=O)c3ccc(C)cc3)nn2)cc(OC)c1OC	949
CC1CCCCN1c1cc(-n2cnc(C(=O)Nc3ccc4c(c3)OCCO4)c2)ncn1 (stereo not drawn)	1040
CCN(CC)c1nc2cc(C(=O)OC)ccc2c(=O)n1Cc1ccc(C)cc1	1310
O=C(c1ccco1)N1CCC[C@H]1c1nc(-c2ccccc2)n[nH]1	652
O=C(c1ccsc1)N1CCN(c2cc(-c3ccc(Cl)cc3)[nH]n2)CC1	809
CC(C)c1ccc(NC(=O)C2CC(=O)N(CCc3c[nH]c4ccc(F)cc34)C2)cc1 (stereo not drawn)	929
CC(=O)N1CCCC(c2nc(CCNC(=O)C3CCC3)cs2)C1 (stereo not drawn)	625
O=c1c2ccc(Cl)cc2oc2cc(O)cc(O)c12	979
Cc1ccc2c(C(=O)N3CCCCC3)cc(NC(=O)C3CCC3)cc2n1	632
O=C(NCCC1CCN(C(=O)Nc2ccc(F)cc2F)CC1)C1CCC1	720
COc1ccc(C(=O)Nc2nc(-c3ccccc3)cs2)cc1OC	961
CC1=NS(=O)(=O)N(C)C=C1C(=O)OCc1nc(-c2cccc(F)c2)no1	967
CCc1nnc2cc(N3CCN(C(=O)c4ccc(OC)cc4)CC3)cnn12	615
O=C(NCCn1nc(-c2ccncc2)ccc1=O)c1ccc(C(F)(F)F)cc1	570
O=C(c1cn(-c2cc(-c3nc(C4CC4)no3)ccn2)cn1)N1CCCCC1	810
O=C(NC1(N2CCOCC2)CC1)c1ccc(Cl)cc1	667
